From the NIST ThermoML archive (doi:10.1021/je600557n)

How the values were obtained:
[1] = molar heat capacity at constant pressure; xn = mol fraction of the nth substance listed; details: 101 kPa, Liquid, Small sample (50 mg) DSC
[2] = xn = mol fraction of the nth substance listed; details: 101 kPa, Liquid
[3] = refractive index (Na D-line) (dimensionless); xn = mol fraction of the nth substance listed; details: 101 kPa, Liquid, Standard Abbe refractometry

C1CCOCC1 [tetrahydropyran] + C[S+](C)[O-]
Details	mass density, [2] [kg/m3]	molar heat capacity at constant pressure, [1] [J/K/mol]	refractive index, [3]	viscosity, [2] [mPa·s]
293.15 K, x2 = 0.073	895.7	–	1.4268	0.906
293.15 K, x2 = 0.0996	–	148.8	–	–
293.15 K, x2 = 0.1171	903.11	–	1.4288	0.931
293.15 K, x2 = 0.1317	–	149.7	–	–
293.15 K, x2 = 0.2176	920.63	–	1.4336	1.005
293.15 K, x2 = 0.2636	–	153	–	–
293.15 K, x2 = 0.3108	937.76	–	1.4383	1.082
293.15 K, x2 = 0.3636	–	154.6	–	–
293.15 K, x2 = 0.4069	956.42	–	1.4433	1.173
293.15 K, x2 = 0.4832	–	155.9	–	–
293.15 K, x2 = 0.4982	975.18	–	1.4483	1.274
293.15 K, x2 = 0.5309	–	156	–	–
293.15 K, x2 = 0.5763	–	155.8	–	–
293.15 K, x2 = 0.5786	992.6	–	1.4528	1.377
293.15 K, x2 = 0.6227	1002.56	–	1.4554	1.433
293.15 K, x2 = 0.6527	1009.49	–	1.4573	1.476
293.15 K, x2 = 0.6773	–	155.5	–	–
293.15 K, x2 = 0.7338	1028.89	–	1.4624	1.605
293.15 K, x2 = 0.7586	–	154.7	–	–
293.15 K, x2 = 0.8085	1047.69	–	1.4673	1.75
293.15 K, x2 = 0.8412	–	153.7	–	–
293.15 K, x2 = 0.9237	–	152	–	–
293.15 K, x2 = 0.9321	1080.93	–	1.4761	2.022
293.15 K, x2 = 0.9579	–	151.4	–	–
303.15 K, x2 = 0.0996	–	152.5	–	–
303.15 K, x2 = 0.1175	893.4	–	1.4226	0.804
303.15 K, x2 = 0.1317	–	153.1	–	–
303.15 K, x2 = 0.2209	911.49	–	1.4275	0.865
303.15 K, x2 = 0.2636	–	155	–	–
303.15 K, x2 = 0.3113	928.13	–	1.4322	0.925
303.15 K, x2 = 0.3636	–	156.1	–	–
303.15 K, x2 = 0.411	947.52	–	1.4375	1.001
303.15 K, x2 = 0.4832	–	156.6	–	–
303.15 K, x2 = 0.4945	964.64	–	1.4422	1.078
303.15 K, x2 = 0.5309	–	156.8	–	–
303.15 K, x2 = 0.5341	973.08	–	1.4444	1.112
303.15 K, x2 = 0.5763	–	156.5	–	–
303.15 K, x2 = 0.5869	984.64	–	1.4477	1.168
303.15 K, x2 = 0.6597	1001.27	–	1.4522	1.25
303.15 K, x2 = 0.6773	–	156	–	–
303.15 K, x2 = 0.7348	1019.24	–	1.4571	1.345
303.15 K, x2 = 0.7586	–	155.5	–	–
303.15 K, x2 = 0.8105	1038.27	–	1.4621	1.453
303.15 K, x2 = 0.8412	–	154.6	–	–
303.15 K, x2 = 0.876	1055.53	–	1.4666	1.563
303.15 K, x2 = 0.9237	–	153.2	–	–
303.15 K, x2 = 0.9393	1072.96	–	1.471	1.679
303.15 K, x2 = 0.9579	–	152.9	–	–
313.15 K, x2 = 0.07165	875.38	–	1.4152	0.681
313.15 K, x2 = 0.0996	–	157.1	–	–
313.15 K, x2 = 0.1195	883.44	–	1.4173	0.701
313.15 K, x2 = 0.1317	–	157.7	–	–
313.15 K, x2 = 0.2128	899.76	–	1.422	0.745
313.15 K, x2 = 0.2636	–	159.3	–	–
313.15 K, x2 = 0.3143	918.44	–	1.4272	0.803
313.15 K, x2 = 0.3636	–	160	–	–
313.15 K, x2 = 0.4102	937.09	–	1.4323	0.863
313.15 K, x2 = 0.4832	–	160.5	–	–
313.15 K, x2 = 0.4969	954.93	–	1.4375	0.927
313.15 K, x2 = 0.5309	–	160.3	–	–
313.15 K, x2 = 0.5311	962.23	–	1.4394	0.953
313.15 K, x2 = 0.5763	–	160.1	–	–
313.15 K, x2 = 0.5865	974.36	–	1.4429	0.997
313.15 K, x2 = 0.6595	991.06	–	1.4474	1.063
313.15 K, x2 = 0.6773	–	159.3	–	–
313.15 K, x2 = 0.7295	1007.8	–	1.452	1.136
313.15 K, x2 = 0.7586	–	158.5	–	–
313.15 K, x2 = 0.8349	1034.54	–	1.4592	1.26
313.15 K, x2 = 0.8412	–	157.3	–	–
313.15 K, x2 = 0.9237	–	155.8	–	–
313.15 K, x2 = 0.938	1062.5	–	1.4663	1.405
313.15 K, x2 = 0.9579	–	155.1	–	–
